Results as given in patent US6676928B2, “Perfluoroalkyl-containing complexes with polar radicals, process for their production and their use” (Schering Aktiengesellschaft, priority 2000, dated 2004).
“And” between values parts separate entries of the source, which are not always exact repeats. Identical values can stand only once. Blank lines part the entries; values can stand above or below the compound they belong to.

Columns and labels:
[1] = 39° C., 0.47 T; cited from earlier work
[2] = 39° C., 0.47 T; cited from earlier work; remark: listed apart in the source
[3] = Organ distribution (including tumor and lymph node concentration) after intravenous administration in prostate-cancer-carrying rats; assay type: in vivo, rats (Cop-inbreeding, Dunning R3327 MAT-Lu prostate cancer); conditions: rat i.v. 100 μmol Gd/kg
Source text: Organ Distribution (Including Tumor and Lymph Node Concentration) After Intravenous Administration of the Contrast Medium According to the Invention From Example 3 in Prostate-cancer-Carrying Rats.
After intravenous administration of 100 μmol of total gadolinium/kg of body weight of the title compound of Example 3 in rats (Cop-inbreeding Dunning R3327 MAT-Lu prostate cancer i.m.-implanted 12 days earlier), the metal content in various organs, in tumors and in lymph nodes (pooled as mesenteral and peripheral lymph nodes) was determined 10 minutes, 1 and 24 hours after administration (MW=SD, n=3).

[4] = in vivo; cited from earlier work
[5] = test system: infarcted tissue (kidney, myocardium); conditions: two cases: infarction-kidney and myocardium; cited from earlier work
[6] = blood (58 ml of blood/kg of body weight), 10 min p.i.
[7] = blood (58 ml of blood/kg of body weight), 1 h p.i.
[8] = blood (58 ml of blood/kg of body weight), 24 h p.i.
[9] = intestine (emptied), 10 min p.i.
[10] = mes. LK (pooled mesenteral lymph nodes), 10 min p.i.
[11] = mes. LK (pooled mesenteral lymph nodes), 1 h p.i.
[12] = mes. LK (pooled mesenteral lymph nodes), 24 h p.i.
[13] = muscle (only tissue sample from right lower leg muscle), 10 min p.i.
[14] = muscle (only tissue sample from right lower leg muscle), 1 h p.i.
[15] = muscle (only tissue sample from right lower leg muscle), 24 h p.i.
[16] = periph. LK (pooled peripheral lymph nodes), 10 min p.i.
[17] = periph. LK (pooled peripheral lymph nodes), 1 h p.i.
[18] = periph. LK (pooled peripheral lymph nodes), 24 h p.i.
[19] = remainder of the body, 24 h p.i.

Compound: CNC[C@H](O)[C@@H](O)[C@H](O)[C@H](O)CO.O=C([O-])CN1CCN(CC(=O)[O-])CCN(CC(=O)O)CCN(CC(=O)[O-])CC1.[Gd+3] [DOTAREM ®]
T^1 - Relaxivity in Water [1]: 3.5 mmol⁻¹ s⁻¹ | T^1 - Relaxivity in Plasma [2]: 4.3 mmol⁻¹ s⁻¹

% Dosis pro Gesamtgewebe, Summe der Organe (sum total of all of the organs) ([3]; 10 min p.i., less the remainder of the body): 46,35% | % Dosis pro Gesamtgewebe, Summe der Organe (sum total of all of the organs) ([3]; 1 h p.i., less the remainder of the body): 41,79% | % Dosis pro Gesamtgewebe, Bilanz (balance) ([3]; 24 h p.i.): 96,24% | % Dosis pro Gesamtgewebe, Summe der Organe (sum total of all of the organs) ([3]; 24 h p.i.): 50,95% | % Dosis pro Gesamtgewebe (% dose per total tissue) [3, 6]: 35,18% | Gd-Konzentration (Gd-concentration) [3, 6]: 621 µmol/L | % Dosis pro Gesamtgewebe (% dose per total tissue) [3, 7]: 30,63% | Gd-Konzentration (Gd-concentration) [3, 7]: 534 µmol/L | % Dosis pro Gesamtgewebe (% dose per total tissue) [3, 8]: 9,58% | Gd-Konzentration (Gd-concentration) [3, 8]: 169 µmol/L | % Dosis pro Gesamtgewebe (% dose per total tissue) ([3]; brain, 10 min p.i.): 0,09% | Gd-Konzentration (Gd-concentration) ([3]; brain, 10 min p.i.): 16 µmol/L | % Dosis pro Gesamtgewebe (% dose per total tissue) ([3]; brain, 1 h p.i.): 0,10% | Gd-Konzentration (Gd-concentration) ([3]; brain, 1 h p.i.): 16 µmol/L | % Dosis pro Gesamtgewebe (% dose per total tissue) ([3]; brain, 24 h p.i.): 0,03% | Gd-Konzentration (Gd-concentration) ([3]; brain, 24 h p.i.): 5 µmol/L | % Dosis pro Gesamtgewebe (% dose per total tissue) ([3]; feces 0-24 h): 8,91% | Gd-Konzentration (Gd-concentration) ([3]; feces 0-24 h): 561 µmol/L | % Dosis pro Gesamtgewebe (% dose per total tissue) ([3]; femur, 10 min p.i.): 0,50% | Gd-Konzentration (Gd-concentration) ([3]; femur, 10 min p.i.): 61 µmol/L | % Dosis pro Gesamtgewebe (% dose per total tissue) ([3]; femur, 1 h p.i.): 0,50% | Gd-Konzentration (Gd-concentration) ([3]; femur, 1 h p.i.): 64 µmol/L | % Dosis pro Gesamtgewebe (% dose per total tissue) ([3]; femur, 24 h p.i.): 0,26% | Gd-Konzentration (Gd-concentration) ([3]; femur, 24 h p.i.): 33 µmol/L | % Dosis pro Gesamtgewebe (% dose per total tissue) ([3]; heart, 10 min p.i.): 0,40% | Gd-Konzentration (Gd-concentration) ([3]; heart, 10 min p.i.): 177 µmol/L | % Dosis pro Gesamtgewebe (% dose per total tissue) ([3]; heart, 1 h p.i.): 0,33% | Gd-Konzentration (Gd-concentration) ([3]; heart, 1 h p.i.): 151 µmol/L | % Dosis pro Gesamtgewebe (% dose per total tissue) ([3]; heart, 24 h p.i.): 0,15% | Gd-Konzentration (Gd-concentration) ([3]; heart, 24 h p.i.): 65 µmol/L | % Dosis pro Gesamtgewebe (% dose per total tissue) [3, 9]: 2,48% | Gd-Konzentration (Gd-concentration) [3, 9]: 146 µmol/L | % Dosis pro Gesamtgewebe (% dose per total tissue) ([3]; intestine (emptied), 1 h p.i.): 1,85% | Gd-Konzentration (Gd-concentration) ([3]; intestine (emptied), 1 h p.i.): 130 µmol/L | % Dosis pro Gesamtgewebe (% dose per total tissue) ([3]; intestine (emptied), 24 h p.i.): 1,63% | Gd-Konzentration (Gd-concentration) ([3]; intestine (emptied), 24 h p.i.): 101 µmol/L | % Dosis pro Gesamtgewebe (% dose per total tissue) ([3]; kidney, 10 min p.i.): 1,70% | Gd-Konzentration (Gd-concentration) ([3]; kidney, 10 min p.i.): 359 µmol/L | % Dosis pro Gesamtgewebe (% dose per total tissue) ([3]; kidney, 1 h p.i.): 2,00% | Gd-Konzentration (Gd-concentration) ([3]; kidney, 1 h p.i.): 394 µmol/L | % Dosis pro Gesamtgewebe (% dose per total tissue) ([3]; kidney, 24 h p.i.): 1,38% | Gd-Konzentration (Gd-concentration) ([3]; kidney, 24 h p.i.): 292 µmol/L | % Dosis pro Gesamtgewebe (% dose per total tissue) ([3]; liver, 10 min p.i.): 3,79% | Gd-Konzentration (Gd-concentration) ([3]; liver, 10 min p.i.): 137 µmol/L | % Dosis pro Gesamtgewebe (% dose per total tissue) ([3]; liver, 1 h p.i.): 3,93% | Gd-Konzentration (Gd-concentration) ([3]; liver, 1 h p.i.): 136 µmol/L | % Dosis pro Gesamtgewebe (% dose per total tissue) ([3]; liver, 24 h p.i.): 5,37% | Gd-Konzentration (Gd-concentration) ([3]; liver, 24 h p.i.): 172 µmol/L | % Dosis pro Gesamtgewebe (% dose per total tissue) ([3]; lung, 10 min p.i.): 1,30% | Gd-Konzentration (Gd-concentration) ([3]; lung, 10 min p.i.): 344 µmol/L | % Dosis pro Gesamtgewebe (% dose per total tissue) ([3]; lung, 1 h p.i.): 1,27% | Gd-Konzentration (Gd-concentration) ([3]; lung, 1 h p.i.): 321 µmol/L | % Dosis pro Gesamtgewebe (% dose per total tissue) ([3]; lung, 24 h p.i.): 0,56% | Gd-Konzentration (Gd-concentration) ([3]; lung, 24 h p.i.): 146 µmol/L | % Dosis pro Gesamtgewebe (% dose per total tissue) [3, 10]: 0,11% | Gd-Konzentration (Gd-concentration) [3, 10]: 155 µmol/L | % Dosis pro Gesamtgewebe (% dose per total tissue) [3, 11]: 1,10% | Gd-Konzentration (Gd-concentration) [3, 11]: 160 µmol/L | % Dosis pro Gesamtgewebe (% dose per total tissue) [3, 12]: 0,09% | Gd-Konzentration (Gd-concentration) [3, 12]: 127 µmol/L | % Dosis pro Gesamtgewebe (% dose per total tissue) [3, 13]: 0,12% | Gd-Konzentration (Gd-concentration) [3, 13]: 41 µmol/L | % Dosis pro Gesamtgewebe (% dose per total tissue) [3, 14]: 0,08% | Gd-Konzentration (Gd-concentration) [3, 14]: 40 µmol/L | % Dosis pro Gesamtgewebe (% dose per total tissue) [3, 15]: 0,03% | Gd-Konzentration (Gd-concentration) [3, 15]: 13 µmol/L | % Dosis pro Gesamtgewebe (% dose per total tissue) ([3]; pancreas, 10 min p.i.): 0,25% | Gd-Konzentration (Gd-concentration) ([3]; pancreas, 10 min p.i.): 99 µmol/L | % Dosis pro Gesamtgewebe (% dose per total tissue) ([3]; pancreas, 1 h p.i.): 0,23% | Gd-Konzentration (Gd-concentration) ([3]; pancreas, 1 h p.i.): 95 µmol/L | % Dosis pro Gesamtgewebe (% dose per total tissue) ([3]; pancreas, 24 h p.i.): 0,18% | Gd-Konzentration (Gd-concentration) ([3]; pancreas, 24 h p.i.): 55 µmol/L | % Dosis pro Gesamtgewebe (% dose per total tissue) [3, 16]: 0,13% | Gd-Konzentration (Gd-concentration) [3, 16]: 115 µmol/L | % Dosis pro Gesamtgewebe (% dose per total tissue) [3, 17]: 0,19% | Gd-Konzentration (Gd-concentration) [3, 17]: 186 µmol/L | % Dosis pro Gesamtgewebe (% dose per total tissue) [3, 18]: 0,11% | Gd-Konzentration (Gd-concentration) [3, 18]: 108 µmol/L | % Dosis pro Gesamtgewebe (% dose per total tissue) [3, 19]: 31,05% | Gd-Konzentration (Gd-concentration) [3, 19]: 103 µmol/L | % Dosis pro Gesamtgewebe (% dose per total tissue) ([3]; spleen, 10 min p.i.): 0,25% | Gd-Konzentration (Gd-concentration) ([3]; spleen, 10 min p.i.): 184 µmol/L | % Dosis pro Gesamtgewebe (% dose per total tissue) ([3]; spleen, 1 h p.i.): 0,23% | Gd-Konzentration (Gd-concentration) ([3]; spleen, 1 h p.i.): 161 µmol/L | % Dosis pro Gesamtgewebe (% dose per total tissue) ([3]; spleen, 24 h p.i.): 0,25% | Gd-Konzentration (Gd-concentration) ([3]; spleen, 24 h p.i.): 161 µmol/L | % Dosis pro Gesamtgewebe (% dose per total tissue) ([3]; stomach (emptied), 10 min p.i.): 0,47% | Gd-Konzentration (Gd-concentration) ([3]; stomach (emptied), 10 min p.i.): 90 µmol/L | % Dosis pro Gesamtgewebe (% dose per total tissue) ([3]; stomach (emptied), 1 h p.i.): 0,50% | Gd-Konzentration (Gd-concentration) ([3]; stomach (emptied), 1 h p.i.): 93 µmol/L | % Dosis pro Gesamtgewebe (% dose per total tissue) ([3]; stomach (emptied), 24 h p.i.): 0,27% | Gd-Konzentration (Gd-concentration) ([3]; stomach (emptied), 24 h p.i.): 48 µmol/L | % Dosis pro Gesamtgewebe (% dose per total tissue) ([3]; tumor, 10 min p.i.): 0,20% | Gd-Konzentration (Gd-concentration) ([3]; tumor, 10 min p.i.): 82 µmol/L | % Dosis pro Gesamtgewebe (% dose per total tissue) ([3]; tumor, 1 h p.i.): 0,40% | Gd-Konzentration (Gd-concentration) ([3]; tumor, 1 h p.i.): 126 µmol/L | % Dosis pro Gesamtgewebe (% dose per total tissue) ([3]; tumor, 24 h p.i.): 0,46% | Gd-Konzentration (Gd-concentration) ([3]; tumor, 24 h p.i.): 100 µmol/L | % Dosis pro Gesamtgewebe (% dose per total tissue) ([3]; urine 0-24 h): 36,38% | Gd-Konzentration (Gd-concentration) ([3]; urine 0-24 h): 60 µmol/L
Compound: CC(C(=O)NCC(=O)NCCCC[C@H](NC(=O)CNC(=O)C(C)N1CCN(CC(=O)[O-])CCN(CC(=O)[O-])CCN(CC(=O)[O-])CC1)C(=O)N1CCN(S(=O)(=O)C(F)(F)C(F)(F)C(F)(F)C(F)(F)C(F)(F)C(F)(F)C(F)(F)C(F)(F)F)CC1)N1CCN(CC(=O)[O-])CCN(CC(=O)[O-])CCN(CC(=O)[O-])CC1.[Gd+3].[Gd+3] (some centres unmarked) [Example 3]

Compound: CNC[C@H](O)[C@@H](O)[C@H](O)[C@H](O)CO.CNC[C@H](O)[C@@H](O)[C@H](O)[C@H](O)CO.O=C([O-])CN(CCN(CC(=O)[O-])CC(=O)O)CCN(CC(=O)[O-])CC(=O)O.[Gd+3] [MAGNEVIST ®]
T^1 - Relaxivity in Water [1]: 3.8 mmol⁻¹ s⁻¹ | T^1 - Relaxivity in Plasma [2]: 4.8 mmol⁻¹ s⁻¹

Compound: O=S(=O)([O-])c1ccc(-c2c3nc(c(-c4ccc(S(=O)(=O)[O-])cc4)c4ccc([nH]4)c(-c4ccc(S(=O)(=O)[O-])cc4)c4nc(c(-c5ccc(S(=O)(=O)[O-])cc5)c5ccc2[nH]5)C=C4)C=C3)cc1.[Mn+4] [Mn-TPPS, manganese-5,10,15,20-tetrakis(4-sulfonatophenyl)-porphyrin]
LD50 [4]: approximately 0.5 mmol/kg

Compound: CNC(=O)CN(CCN(CCN(CC(=O)[O-])CC(=O)NC)CC(=O)[O-])CC(=O)[O-].[Gd+3] [OMNISCAN ®]
T^1 - Relaxivity in Water [1]: 3.8 mmol⁻¹ s⁻¹ | T^1 - Relaxivity in Plasma [2]: 4.4 mmol⁻¹ s⁻¹

Compound: CC(O)CN1CCN(CC(=O)[O-])CCN(CC(=O)[O-])CCN(CC(=O)[O-])CC1.[Gd+3] (centres unmarked) [PRO HANCE ®]
T^1 - Relaxivity in Water [1]: 3.7 mmol⁻¹ s⁻¹ | T^1 - Relaxivity in Plasma [2]: 4.9 mmol⁻¹ s⁻¹

Compound: gadolinium-mesoporphyrin [Gd-MP]
ratio of the signal intensities in MRI, infarcted in comparison to healthy tissue [5]: 2.10 and 2.19
